Test results reported in ChEMBL document CHEMBL5303304, “EUbOPEN Chemogenomics Library - IncuCyte” (2023).
Several values for one entry are separate records, joined by “and”; a condition that tells them apart may be missing. Equal entries are not always repeated.

Experiments:
Type in all cases: toxicity, cell-based
[1] = test system: U2OS; assay: Incucyte cell viability with U2OS; details: human, 10 µM, compound concentration 10 uM
[2] = test system: HEK-293T; assay: Incucyte cell viability with HEK293T; details: human, 10 µM, compound concentration 10 uM
[3] = test system: Fibroblast; assay: Incucyte cell viability with human fibroblast; details: 10 µM, compound concentration 10 uM
Note: unitless GR value; below 1 slowed growth and below 0 cell loss.

| Structure (SMILES) | Growth Rate ([1]; 0 h, replicate number 1) | Growth Rate ([1]; 6 h, replicate number 1) | Growth Rate ([1]; 6 h, replicate number 2) | Growth Rate ([1]; 12 h, replicate number 2) | Growth Rate ([1]; 24 h, replicate number 1) | Growth Rate ([1]; 24 h, replicate number 2) | Growth Rate ([2]; 6 h, replicate number 1) | Growth Rate ([2]; 12 h, replicate number 1) | Growth Rate ([2]; 18 h, replicate number 1) | Growth Rate ([2]; 24 h, replicate number 1) | Growth Rate ([2]; 24 h, replicate number 2) | Growth Rate ([3]; 0 h, replicate number 2) | Growth Rate ([3]; 12 h, replicate number 2) | Growth Rate ([3]; 24 h, replicate number 1) | Growth Rate ([2]; 0 h, replicate number 1) | Growth Rate ([2]; 0 h, replicate number 2) | Growth Rate ([2]; 6 h, replicate number 2) | Growth Rate ([2]; 12 h, replicate number 2) | Growth Rate ([3]; 6 h, replicate number 2) | Growth Rate ([1]; 0 h, replicate number 2) | also measured |
| --- | --- | --- | --- | --- | --- | --- | --- | --- | --- | --- | --- | --- | --- | --- | --- | --- | --- | --- | --- | --- | --- |
| COc1ccc2c(O[C@@H]3C[C@H]4C(=O)N[C@]5(C(=O)O)CC5/C=C\CCCCC[C@H](NC(=O)OC5CCCC5)C(=O)N4C3)cc(-c3csc(NC(=O)C(C)C)n3)nc2c1C (some centres not stated) [BI 1230] | 0.55 | 0.71 and 0.63 | 0.86 | 0.86 | 0.77 and 0.99 | 0.95 | 0.86 and 0.76 | 0.92 and 0.77 | 0.86 and 0.65 | 0.7 | 0.34 and 0.67 | 0.45 | -0.04 and -0.05 | 0.07 and 0.17 |  |  |  |  |  |  | Growth Rate ([1]; 18 h, replicate number 1): 0.65 and 0.86; Growth Rate ([1]; 18 h, replicate number 2): 0.98; Growth Rate ([3]; 12 h, replicate number 1): 0.15 and 0.2 |
| O=C(N[C@H]1CCCCC/C=C\C2C[C@@]2(C(=O)O)NC(=O)[C@@H]2C[C@@H](Oc3ccncc3)CN2C1=O)OC1CCCC1 (some centres not stated) [BI 1675] | 0.43 | 0.77 |  | 0.99 | 0.89 |  |  |  |  | 0.94 | 0.89 |  |  | 0.99 | -0.15 | -0.95 | 0.64 | 0.89 | 0.39 |  | Growth Rate ([1]; 12 h, replicate number 1): 0.68; Growth Rate ([1]; 18 h, replicate number 1): 0.77; Growth Rate ([3]; 6 h, replicate number 1): 0.23; Growth Rate ([3]; 12 h, replicate number 1): 0.84; Growth Rate ([3]; 18 h, replicate number 2): 0.91 |
| CCOCCn1cc(C(=O)Nc2ccc(-n3nc(-c4cccnc4)cc3C(F)(F)F)cn2)ccc1=O [BI 1935] |  | 0.75 |  | 0.89 | 0.66 |  | 0.1 | 0.36 | 0.41 | 0.48 | 0.51 | -0.02 | 0.65 | 0.78 |  |  | -0.06 | 0.27 | 0.1 |  | Growth Rate ([1]; 12 h, replicate number 1): 0.52; Growth Rate ([1]; 18 h, replicate number 1): 0.7; Growth Rate ([2]; 18 h, replicate number 2): 0.43; Growth Rate ([3]; 12 h, replicate number 1): 0.59; Growth Rate ([3]; 18 h, replicate number 1): 0.83 |
| O=C(Nc1ccc(-n2nc(-c3cccnc3)cc2C(F)(F)F)cn1)c1ccc(-c2ccccc2)c(F)c1 [BI 2049] |  | 0.83 | 0.46 | 0.84 |  | 0.97 |  |  |  |  |  |  | 0.85 | 0.99 | -0.8 | 0.47 |  |  |  | -0.06 | Growth Rate ([1]; 18 h, replicate number 2): 0.93; Growth Rate ([3]; 18 h, replicate number 2): 0.98; Growth Rate ([3]; 24 h, replicate number 2): 0.91 |
| CC(C)(C#Cc1ccc(NC(=O)COc2ccccc2C(=O)c2ccccc2)c(Cl)c1)C(=O)O [BI 2439] |  | 1 | 0.76 | 0.68 |  | 0.76 | 0.72 | 0.81 | 0.78 | 0.79 | 0.69 | -0.64 | 0.66 | 0.89 |  |  | 0.41 | 0.42 |  | -0.27 | Growth Rate ([1]; 18 h, replicate number 2): 0.81; Growth Rate ([2]; 18 h, replicate number 2): 0.62; Growth Rate ([3]; 6 h, replicate number 1): 0.59; Growth Rate ([3]; 18 h, replicate number 1): 0.92 |
| Cc1c(NC(=O)COc2ccc(Cl)cc2C(=O)c2cc(F)cc(C(F)(F)F)c2)ccc(C(=O)O)c1F [BI 2540] | 0.29 | 0.84 | -0.88 |  | 0.89 and 0.98 |  | 0.71 |  | 0.97 | 0.91 | 0.78 | -0.2 | 0.54 | 0.87 and 0.99 | 0.45 | 0.89 and 0.62 | 0.58 | 0.77 | 0.6 | 0.41 | Growth Rate ([1]; 12 h, replicate number 1): 0.64; Growth Rate ([1]; 18 h, replicate number 1): 0.91; Growth Rate ([2]; 18 h, replicate number 2): 0.75; Growth Rate ([3]; 6 h, replicate number 1): 0.41; Growth Rate ([3]; 12 h, replicate number 1): 0.77; Growth Rate ([3]; 18 h, replicate number 1): 0.85; Growth Rate ([3]; 18 h, replicate number 2): 0.78; Growth Rate ([3]; 24 h, replicate number 2): 0.97 |
| O=C(NC[C@@H]1[C@H]2CN(C(=O)OCc3cc(C(F)(F)F)cc(C(F)(F)F)c3)C[C@@H]12)c1ccc2[nH]nnc2c1 [BI 2545] |  | 0.88 | -0.56 | -0.13 |  | 0.42 | -0.09 | 0.5 | 0.6 | 0.76 | 0.91 | -0.7 | 0.94 |  |  |  | -0.7 | 0.56 | -0.08 | -0.98 | Growth Rate ([1]; 18 h, replicate number 2): 0.23; Growth Rate ([2]; 18 h, replicate number 2): 0.94; Growth Rate ([3]; 6 h, replicate number 1): 0.33 |
| Cc1nccc(COC(=O)N2C[C@@H]3[C@@H](CNC(=O)c4ccc5[nH]nnc5c4)[C@@H]3C2)n1 [BI 3017] | 0.85 | 0.95 |  | 0.99 | 0.86 |  | 0.95 |  |  |  | 0.99 |  |  |  | 0.2 | 0.4 |  |  |  |  | Growth Rate ([3]; 18 h, replicate number 1): 0.93; Growth Rate ([3]; 18 h, replicate number 2): 0.73; Growth Rate ([3]; 24 h, replicate number 2): 0.95 |
| CCOC(=O)c1cc2cc(-c3cc(C(=O)NCc4ccc(C(=O)O)cc4)nn3C)ccc2[nH]1 [BI 4394] | 0.89 | 0.74 |  | 0.96 | 0.96 |  | 0.88 | 0.98 | 0.93 |  |  |  | 0.54 |  | 0.13 | 0.34 |  |  | 0.71 |  | Growth Rate ([1]; 18 h, replicate number 2): 0.99; Growth Rate ([3]; 18 h, replicate number 2): 0.7; Growth Rate ([3]; 24 h, replicate number 2): 0.86 |
| Cn1nc(C(=O)NCc2ccc(C(=O)O)cc2)cc1-c1ccc2[nH]ccc2c1 [BI 4395] |  | 0.66 | 0.99 | 0.96 |  | 0.9 |  |  |  |  | 0.56 | -0.67 |  |  | -0.1 | 0.58 | 0.57 | 0.63 |  | 0.14 | Growth Rate ([2]; 18 h, replicate number 2): 0.85 |
| Cn1c(C2(NC(=O)c3ccc(NCC4CCCCC4)nc3)CCC2)nc2ccc(/C=C/C(=O)O)cc21 [BI 7656] | 0.79 | 0.81 |  |  | 0.92 | 0.93 | 0.41 | 0.81 |  |  |  |  | 0.82 | 0.94 |  | -0.78 |  |  | -0.44 | 0.24 | Growth Rate ([1]; 12 h, replicate number 1): 0.92; Growth Rate ([3]; 24 h, replicate number 2): 0.72 |
